According to patent US12054562B2, “Cell-permeable inhibitory agent and methods of use thereof in treatment of cognitive and mood disorders” (priority 2015, dated 2024):

Legend:
[1] = test system: α5GABAA receptor cell-surface expression; assay: Receptor cell-surface ELISA assay in cultured hippocampal neurons; assay type: cell-based, mouse; conditions: for etomidate-induced increase in α5GABAA receptor surface expression: peptide 2 μM, 24 hrs, astrocyte-conditioned medium (etomidate 1 μM, 1 hr)
Procedure: This experimental cell culture model was used to test the effects of the inhibitory peptide on an overexpression of α5GABAA receptors on the surface of neurons. The medium from astrocytes that were treated with etomidate (1 μM, 1 hr) (conditioned medium) was collected, and the medium bathing cultured hippocampal neurons was exchanged with the astrocyte-conditioned medium. The cells were incubated at 37° C., 5% CO2 with the peptide or scramble peptide (2 μM). After 24 hrs incubation, the cells were used for receptor cell-surface ELISA assay. The cells were fixed in 4% paraformaldehyde for 20 min in the presence (permeabilized) or absence (non-permeabilized) of 1% Triton-X100. The cells, after 3 times wash with cold PBS and blocked with 5% bovine album solution, were incubated with a α5 antibody (Santa Cruz Biotech Inc.) at 4° C. overnight. The next day the cells were thoroughly washed with PBS and incubated with the horseradish peroxidase (HRP)-conjugated secondary antibody for 2 hrs. With HRP substrate added and color developed in the medium, the results were determined with microplate reader.
The cell surface expression of α5 subunit was presented as the ratio of the colorimetric reading under non-permeabilized conditions to those permeabilized conditions. Consistent with the previous report, etomidate increases α5GABAA receptor surface expression. This increase was blocked by the specific peptide, but not the scramble peptide (FIG. 6A).
For astrocyte culture, cortical astrocytes were isolated from embryonic day 18 (E18) mouse embryos. Cells were allowed to grow to confluence in MEM and 10% fetal bovine serum (FBS; Life Technologies, Grand Island, New York) for 14 d. Cells were then enzymatically dissociated with trypsin-EDTA (0.05%; Life Technologies, Grand Island, New York), and passaged three times to obtain a nearly pure astrocytic culture. Astrocytes were then plated at a density of 25,000 cells per dish. […]

[2] = test system: GABAA receptor-mediated tonic current in hippocampal neurons; assay: Whole-cell voltage-clamp recordings of tonic current in astrocyte-neuron co-cultures; assay type: cell-based, mouse; conditions: for tonic current: neurons grown in co-cultures
radixin = assay: Western blot of radixin phosphorylation in hippocampus of treated mice; assay type: in vivo, mouse; conditions: etomidate 8 mg/kg, i.p., hippocampi 24 hrs later
Procedure: We next asked whether injection of inhibitory peptide, when administered to mice in vivo by I.P. injection, reduced the level of α5GABAA receptors expressed in the hippocampus. To test whether the peptide reduces α5GABAA receptor cell-surface expression in vivo, we took advantage of a mouse model that we developed recently (Zurek, et al., 2014), in which up-regulation of α5GABAA receptor cell surface expression causes memory deficits. Adult mice (22-25 g) were treated with etomidate (8 mg/kg, i.p.), and sacrificed 24 hrs later according to a protocol approved by the Animal Care Committee of the University of Toronto. The hippocampi were collected and subject to experiments. We first measured the level of radixin phosphorylation, because radixin phosphorylation is required for the recruitment of α5GABAA receptors to extrasynaptic sites of the neurons (Loebrich et al., 2006; Hausrat et al., 2015). The antibody against threonine at 564 of radixin, which is specific for radixin phosphorylation involving α5GABAA receptor extra-synaptic trafficking, was used for these studies (Choii et al., 2015; Hausrat et al., 2015). […] We next examined whether the inhibitory peptide prevented α5GABAA receptor from trafficking to surface membrane in vivo by studying ex vivo brain slices. […]

[3] = test system: etomidate-induced memory deficits in mice; assay: Novel object recognition task, prevention paradigm; assay type: in vivo, mouse; conditions: Etom 8 mg/kg i.p., NOR next day
Description: The novel object recognition task involves the presentation of two identical objects for visual inspection (in the case of humans and non-human primates) and exploration in the case of rodents. After a delay, one of the original objects is presented together with a new (novel) object. Humans and animals normally spend time more time looking at (or in the case of mice, exploring) the novel object. Indeed, the test relies on the innate preference of humans and animals for novelty. The inspection or interaction time differs only if the familiar object is recognized. Otherwise, the subject spends an equal amount of time inspecting both objects. […]
In the present study, mice were handled two times a day, 5 min each before start of behavioral experiments. Object recognition was assessed in a circle opaque chamber with the diameter of 38.5 cm in a regular lit room. […] Movement and interaction with the objects was recorded with a video camera that was mounted above the chamber. The exploratory behavior and mouse activity was analyzed blindly by a person with a good training and the software EthoVision, XT v11.5 provided by the Noldus Information Tech Inc., (Leesburg VA, USA). […] Memory was assessed by measuring the novelty preference ratio (i.e., the ratio of time spent exploring the novel object to the time spent exploring both objects). […]

[4] = molecular target: T1, α5 subunit-radixin interaction (Mus musculus, UniProt P26043); assay: Co-immunoprecipitation and Western blot of α5 subunit-radixin coupling in hippocampal tissue lysate; assay type: binding; conditions: 20 μM peptide without TAT sequence, one hour incubation
T1 construct: tissue lysate prepared from the hippocampus of adult mice; from tissue; host or cells: hippocampus of adult mice (C57BL/6J×SvEv)
T1 sequence (P26043 whole entry): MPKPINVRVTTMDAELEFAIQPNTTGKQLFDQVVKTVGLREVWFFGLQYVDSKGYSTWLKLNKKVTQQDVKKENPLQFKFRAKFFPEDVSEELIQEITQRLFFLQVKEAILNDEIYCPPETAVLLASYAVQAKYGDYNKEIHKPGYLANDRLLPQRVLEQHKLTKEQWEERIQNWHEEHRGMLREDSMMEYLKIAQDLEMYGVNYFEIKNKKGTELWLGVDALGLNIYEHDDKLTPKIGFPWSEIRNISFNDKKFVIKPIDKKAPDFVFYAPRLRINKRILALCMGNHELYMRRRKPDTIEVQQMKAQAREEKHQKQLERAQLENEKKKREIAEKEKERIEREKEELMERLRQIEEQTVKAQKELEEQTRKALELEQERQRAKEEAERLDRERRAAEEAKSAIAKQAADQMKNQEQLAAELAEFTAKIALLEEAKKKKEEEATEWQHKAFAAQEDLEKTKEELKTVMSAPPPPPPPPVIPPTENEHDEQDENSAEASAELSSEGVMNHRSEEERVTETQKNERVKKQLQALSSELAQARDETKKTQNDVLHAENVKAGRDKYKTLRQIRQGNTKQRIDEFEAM
Procedure: The experiments used tissue lysate prepared from the hippocampus of adult mice (C57BL/6J×SvEv, 2-4 month old, male). Hippocampal tissue was homogenized in ice-cold RIPA buffer (20 mM Tris-HCL, pH 7.5, 150 mM NaCl, 1 mM Na2EDTA, 1 mM EGTA, 1% NP-40, 1% sodium deoxycholate, 2.5 mM sodium pyrophosphate, 1 mM β-glycerophosphate) supplemented with 1 mM sodium orthovanadate and 1% protease inhibitor cocktail and 1% phosphatase inhibitor cocktail (Roche Diagnostics, GmbH, Manheim Germany). The tissue lysate was subsequently spun at 14,000 rpm for 30 min with the Microfuge 22R Centrifuge (Beckman Coulter™, Brea, California, US). The supernatant was collected and frozen at −20 C°. The next day, the supernatant, after thawing, was re-centrifuged at 14,000 rpm for another 30 min to clear the potential undissolved or pellet substances. After spinning twice, the supernatant was collected for subsequent experiments.
One hour following the incubation, the antibodies (2-4 μg) against either α5 subunit (cat #sc—31417, Santa Cruz Biotechnology, Inc., 10410 Finnell St. Dallas, TX, 75220, USA) or radixin (cat #ab91312, Abcam Inc., c/o 913860, PO Box 4090 Stn A, Toronto, ON M5W 0E9), or 4 μg of non-specific IgG protein (cat #sc—2028, Santa Cruz Biotechnology, Inc., 10410 Finnell St. Dallas, TX, 75220, USA), were added to the lysate solution. […]

CCOC(=O)c1cncn1[C@H](C)c1ccccc1 [etomidate]
α5GABAA receptor surface expression ([1]; medium from astrocytes treated with etomidate 1 μM, 1 hr, 24 hrs incubation): increases
amplitude of the tonic current ([2]; etomidate 1 μM, 1 h, measured 24 h after treatment): caused an increase
radixin phosphorylation (pThr564) (radixin): increases
total radixin protein level (radixin): does not alter
preference for the novel object (NOR) [3]: showed no preference

FC(F)OC(Cl)C(F)(F)F (stereo not shown) [isoflurane]
tonic current ([2]; ISO, 250 μM): persistent increase

Cc1ncc2n1-c1ccc(Cl)cc1C(c1ccccc1F)=NC2 [midazolam]
tonic current ([2]; MDZ, 200 nM): persistent increase

CC(C)c1cccc(C(C)C)c1O [propofol]
tonic current ([2]; Prop, 3 μM): persistent increase

FCOC(C(F)(F)F)C(F)(F)F [sevoflurane]
tonic current ([2]; SEVO, 266 μM): persistent increase

AWDGKKAL (listed as Homo sapiens) [Peptide C8, N-terminal truncated peptide, positions 350-357]
etomidate-induced increase in α5GABAA receptor surface expression [1]: prevented

DGKKAL (listed as Homo sapiens) [Peptide C6, N-terminal truncated peptide, positions 352-357]
etomidate-induced increase in α5GABAA receptor surface expression [1]: did not

GWAWDGKKAL (listed as Homo sapiens) [Peptide C10, N-terminal truncated peptide, positions 348-357]
etomidate-induced increase in α5GABAA receptor surface expression [1]: prevented

KKAL (listed as Homo sapiens) [Peptide C4, N-terminal truncated peptide, positions 354-357]
etomidate-induced increase in α5GABAA receptor surface expression [1]: did not

KRGWAWDGKKAL (listed as Homo sapiens) [α5pΔN4]
etomidate-induced increase in α5GABAA receptor surface expression [1]: retains the inhibitory function

NYFTKRGWAWDG (listed as Homo sapiens) [α5pΔC4]
etomidate-induced increase in α5GABAA receptor surface expression [1]: lost the inhibitory function

TYFGRKNALWKAWKGD (Scramble peptide) [reference compound]
association between α5 subunit and radixin [4]: did not reduce this association
